Laboratory results: ChEMBL document CHEMBL4825723, “Synthesis of new methoxy derivatives of trans 2,3-diaryl-2,3-dihydrobenzofurans and evaluation of their anti-inflammatory activity” (Bioorg Med Chem Lett, 2021)
Calls of active or inactive are those of the source. No cut-off for these calls is given here.

Assays:
[1] = molecular target: T1, Nuclear factor NF-kappa-B complex (Homo sapiens) (UniProt Q00653+P19838+Q04206); assay: Inhibition of NF-kappaB activation in human U-937 cells assessed as reduction in LPS-induced PGE2 production after 48 hrs; format: cell-based
T1 sequence (P19838 whole entry, looked up): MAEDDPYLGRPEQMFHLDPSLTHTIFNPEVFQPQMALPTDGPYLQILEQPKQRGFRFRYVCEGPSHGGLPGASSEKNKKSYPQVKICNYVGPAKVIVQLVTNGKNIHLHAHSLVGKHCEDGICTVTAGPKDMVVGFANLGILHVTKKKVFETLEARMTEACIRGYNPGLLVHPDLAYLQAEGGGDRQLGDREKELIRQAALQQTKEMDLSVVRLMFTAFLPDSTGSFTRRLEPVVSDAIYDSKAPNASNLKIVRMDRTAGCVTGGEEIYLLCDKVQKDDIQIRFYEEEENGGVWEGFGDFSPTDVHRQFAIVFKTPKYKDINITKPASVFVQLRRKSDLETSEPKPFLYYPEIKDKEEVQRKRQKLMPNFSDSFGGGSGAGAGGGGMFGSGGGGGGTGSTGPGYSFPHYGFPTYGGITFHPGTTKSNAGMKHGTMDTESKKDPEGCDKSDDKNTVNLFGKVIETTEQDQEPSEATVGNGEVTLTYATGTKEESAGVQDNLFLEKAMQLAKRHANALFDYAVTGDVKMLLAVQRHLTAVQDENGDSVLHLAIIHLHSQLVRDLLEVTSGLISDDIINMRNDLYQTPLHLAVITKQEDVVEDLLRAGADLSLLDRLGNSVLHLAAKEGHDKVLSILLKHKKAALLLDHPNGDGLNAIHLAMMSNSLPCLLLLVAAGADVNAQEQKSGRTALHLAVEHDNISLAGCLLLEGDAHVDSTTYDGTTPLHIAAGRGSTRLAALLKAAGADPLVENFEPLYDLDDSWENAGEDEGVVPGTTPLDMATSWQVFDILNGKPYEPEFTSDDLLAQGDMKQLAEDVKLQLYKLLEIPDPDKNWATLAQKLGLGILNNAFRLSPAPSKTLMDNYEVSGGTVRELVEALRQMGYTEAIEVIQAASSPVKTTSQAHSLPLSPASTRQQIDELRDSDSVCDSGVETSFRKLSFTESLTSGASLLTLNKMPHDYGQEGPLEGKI
T1 sequence (Q00653 whole entry, looked up): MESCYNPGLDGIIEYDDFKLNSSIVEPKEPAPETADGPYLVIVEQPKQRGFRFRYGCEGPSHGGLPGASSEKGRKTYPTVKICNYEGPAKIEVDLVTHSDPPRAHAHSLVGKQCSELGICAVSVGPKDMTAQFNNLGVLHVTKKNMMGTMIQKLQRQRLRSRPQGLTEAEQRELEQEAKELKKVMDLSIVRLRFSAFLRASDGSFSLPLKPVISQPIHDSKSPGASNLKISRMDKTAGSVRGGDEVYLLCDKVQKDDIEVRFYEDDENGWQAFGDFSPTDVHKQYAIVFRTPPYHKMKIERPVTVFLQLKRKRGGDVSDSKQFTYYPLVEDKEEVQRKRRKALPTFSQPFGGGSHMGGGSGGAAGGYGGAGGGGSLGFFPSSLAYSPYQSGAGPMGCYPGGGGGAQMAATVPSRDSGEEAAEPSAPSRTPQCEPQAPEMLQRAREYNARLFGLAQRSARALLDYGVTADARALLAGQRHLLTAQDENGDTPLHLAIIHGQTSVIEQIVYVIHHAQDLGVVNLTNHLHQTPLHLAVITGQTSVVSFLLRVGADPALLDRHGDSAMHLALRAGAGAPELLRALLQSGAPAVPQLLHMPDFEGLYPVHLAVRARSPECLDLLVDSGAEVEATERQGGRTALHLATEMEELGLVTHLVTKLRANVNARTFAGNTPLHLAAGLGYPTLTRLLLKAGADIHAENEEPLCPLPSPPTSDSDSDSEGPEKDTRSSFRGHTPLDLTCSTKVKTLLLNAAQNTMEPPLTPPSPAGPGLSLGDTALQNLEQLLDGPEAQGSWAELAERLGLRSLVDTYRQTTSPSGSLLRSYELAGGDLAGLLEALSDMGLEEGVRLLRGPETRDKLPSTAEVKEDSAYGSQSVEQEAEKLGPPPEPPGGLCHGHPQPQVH
T1 sequence (Q04206 whole entry, looked up): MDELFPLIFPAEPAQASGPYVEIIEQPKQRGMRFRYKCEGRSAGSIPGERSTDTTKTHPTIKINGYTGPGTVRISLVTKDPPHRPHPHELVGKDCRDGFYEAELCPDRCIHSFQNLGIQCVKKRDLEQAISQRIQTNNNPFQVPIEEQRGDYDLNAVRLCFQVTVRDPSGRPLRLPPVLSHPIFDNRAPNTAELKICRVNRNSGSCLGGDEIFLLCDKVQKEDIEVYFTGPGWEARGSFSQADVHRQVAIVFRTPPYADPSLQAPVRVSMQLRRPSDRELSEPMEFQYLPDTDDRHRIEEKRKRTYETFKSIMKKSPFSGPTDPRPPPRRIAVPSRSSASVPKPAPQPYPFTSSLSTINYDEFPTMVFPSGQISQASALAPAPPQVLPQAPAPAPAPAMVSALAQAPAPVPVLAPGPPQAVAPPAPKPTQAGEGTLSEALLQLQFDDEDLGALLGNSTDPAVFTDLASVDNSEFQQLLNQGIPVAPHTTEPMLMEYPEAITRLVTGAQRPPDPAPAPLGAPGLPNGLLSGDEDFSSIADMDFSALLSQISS

[2] = system: U-937; assay: Anti-inflammatory activity in human U-937 cells assessed as reduction in LPS-induced ROS production at 0.01 uM followed by LPS stimulation and measured after 24 hrs relative to control; format: functional, cell-based
[3] = molecular target: T1, Nuclear factor NF-kappa-B complex (Homo sapiens); assay: Inhibition of NF-kappaB in human U-937 cells assessed as reduction in translocation of p65 NF-kappaB in from cytosol to nucleus at 0.01 uM treated followed by 3 hrs LPS stimulation by Western blot analysis; format: cell-based
[4] = system: U-937; assay: Anti-inflammatory activity in human U-937 cells assessed as reduction in LPS-induced NO production at 0.01 uM followed by LPS stimulation and measured after 24 hrs relative to control; format: functional, cell-based
[5] = molecular target: T1, Nuclear factor NF-kappa-B complex (Homo sapiens); assay: Inhibition of NF-kappaB in human U-937 cells assessed as reduction in translocation of p65 NF-kappaB in from cytosol to nucleus at 0.01 uM treated followed by 3 hrs LPS stimulation hrs by immunohistochemical staining/confocal microscopy; format: cell-based
[6] = molecular target: T1, Nuclear factor NF-kappa-B complex (Homo sapiens); assay: Inhibition of NF-kappaB activation in human U-937 cells assessed as reduction in LPS-induced ACLY activity after 48 hrs; format: cell-based
[7] = molecular target: T1, Nuclear factor NF-kappa-B complex (Homo sapiens); assay: Inhibition of NF-kappaB in human U-937 cells assessed as reduction in LPS-induced p65 expression at 0.01 uM treated followed by 3 hrs LPS stimulation by Western blot analysis; format: cell-based
[8] = system: U-937; assay: Cytotoxicity against human U-937 cells assessed as cell viability at 0.01 uM measured after 72 hrs; format: cell-based; settings: u-937, 72 h

| Structure (SMILES) | inhibition ([1]; concentration not given here) | Activity [2] | inhibition [3] | Activity [4] | inhibition [5] | inhibition ([6]; concentration not given here) | Inhibition of LPS-induced p65 expression [7] | Activity [8] | inhibition [1] | inhibition [6] |
| --- | --- | --- | --- | --- | --- | --- | --- | --- | --- | --- |
| COc1ccc2c(c1)[C@@H](c1ccccc1)[C@H](c1ccccc1)O2 (mixture of isomers) | 28% | Active | Active | Active | Active | 43% | Active |  |  |  |
| COc1ccc2c(c1)[C@@H](c1ccc(Br)cc1)[C@@H](c1ccccc1)O2 |  | Active | Active | Active | Active |  | Active | Non-Toxic |  |  |
| COc1ccc2c(c1)[C@@H](c1ccccc1)[C@H](c1ccccc1)O2 [listing 1 of 2 here] |  | Active | Active | Active | Active |  |  |  | Active | Active |
| COc1ccc2c(c1)[C@@H](c1ccc(Br)cc1)[C@H](c1ccccc1)O2 |  | Active | Active | Active | Active |  | Active | Non-Toxic |  |  |
| COC1(c2ccc(Br)cc2)c2ccccc2OC1c1ccccc1 (mixture of isomers) |  |  |  |  |  |  | Active | Toxic |  |  |
| CO[C@@]1(c2ccccc2)c2ccccc2O[C@H]1c1ccccc1 |  | Active | Active | Active | Active |  | Active | Non-Toxic |  |  |
| COc1ccc2c(c1)C(c1ccccc1)C(c1ccccc1)O2 (racemic) |  | Active | Active | Active | Active | 32% | Active |  | Active |  |
| COc1ccc2c(c1)[C@@H](c1ccccc1)[C@H](c1ccccc1)O2 (single isomer, unassigned) |  |  | Active |  | Active |  | Active |  |  |  |
| COc1ccc2c(c1)[C@@H](c1ccccc1)[C@H](c1ccccc1)O2 [listing 2 of 2 here] |  |  |  |  |  |  |  | Non-Toxic |  |  |
| COc1ccc2c(c1)C(c1cc(Br)cc(Br)c1)C(c1ccccc1)O2 (stereo not given) |  |  |  |  |  |  |  | Non-Toxic |  |  |
